Patent US20150259747A1, “METHOD OF PREDICTING A PREDISPOSITION TO QT PROLONGATION” (priority 2007, published 2015)

Tested on: individuals genotyped at the rs993648 locus
Experiment: QT interval change after two weeks of oral iloperidone in 174 individuals genotyped at the CERKL rs993648 locus
Assay type: in vivo, human
Conditions: iloperidone 24 mg/day B.I.D. oral; for High QT, - test (number of individuals) / Low QT, - test (number of individuals): rs993648 genotype AB (- test); for High QT, - test (number of individuals) / High QT, + test (number of individuals) / Low QT, - test (number of individuals) / Low QT, + test (number of individuals): n=174; for High QT, + test (number of individuals) / Low QT, + test (number of individuals): rs993648 genotype non-AB (+ test)
Description: Since the QT interval changes with changes in heart rate, the QT interval is often measured as a corrected QT (QTc) interval. Any number of formulas may be employed to calculate the QTc, including, for example, the Fridericia formula (QTcF), the Bazett formula (QTcB), and the Rautaharju formula (QTp), among others. In the studies described herein, QT was calculated using the Fridericia formula. However, the present invention includes the use of any such formula or method for calculating a QTc or an uncorrected QT. Using the genotypes at the SNP loci above, it is possible, with a high degree of certainty, to predict an individual's predisposition to QT prolongation.

[1] = QTc change threshold >5 msec not exceeded
[2] = QTc change threshold >15 msec not exceeded
[3] = QTc change threshold >30 msec not exceeded

COc1cc(C(C)=O)ccc1OCCCN1CCC(c2noc3cc(F)ccc23)CC1 [iloperidone]
Odds Ratio (QTc change >5 msec vs rs993648 non-AB genotype): 3.62 | High QT, - test (number of individuals) (QTc change >5 msec): 38 | High QT, + test (number of individuals) (QTc change >5 msec): 72 | Odds Ratio (QTc change >15 msec vs rs993648 non-AB genotype): 4.45 | High QT, - test (number of individuals) (QTc change >15 msec): 18 | High QT, + test (number of individuals) (QTc change >15 msec): 53 | Odds Ratio (QTc change >30 msec vs rs993648 non-AB genotype): 6.16 | High QT, - test (number of individuals) (QTc change >30 msec): 4 | High QT, + test (number of individuals) (QTc change >30 msec): 23 | Low QT, - test (number of individuals) [1]: 42 | Low QT, + test (number of individuals) [1]: 22 | Low QT, - test (number of individuals) [2]: 62 | Low QT, + test (number of individuals) [2]: 41 | Low QT, - test (number of individuals) [3]: 76 | Low QT, + test (number of individuals) [3]: 71
